According to PMC11998009, “Identification of a New FtsZ Inhibitor by Virtual Screening, Mechanistic Insights, and Structure–Activity Relationship Analyses” (ACS Infectious Diseases, 2025):
≈ marks a conversion by molar mass, not a printed value. Like-named read-outs stand apart in the source and are kept apart here.

Legend:
S. aureus TD276 = test: MIC against the FtsZ-mCherry strain; assay type: cell-based; conditions: Staphylococcus aureus
A. baumannii ATCC19606 = test: MIC / checkerboard with PaβN; assay type: cell-based
FtsZPa [1] = biological target: T1, FtsZPa (Pseudomonas aeruginosa, UniProt P47204); test: FtsZPa GTPase activity; assay type: biochemical; set-up: made in house; host or cells: Escherichia coli BL21DE3
T1 sequence (P47204 1-394): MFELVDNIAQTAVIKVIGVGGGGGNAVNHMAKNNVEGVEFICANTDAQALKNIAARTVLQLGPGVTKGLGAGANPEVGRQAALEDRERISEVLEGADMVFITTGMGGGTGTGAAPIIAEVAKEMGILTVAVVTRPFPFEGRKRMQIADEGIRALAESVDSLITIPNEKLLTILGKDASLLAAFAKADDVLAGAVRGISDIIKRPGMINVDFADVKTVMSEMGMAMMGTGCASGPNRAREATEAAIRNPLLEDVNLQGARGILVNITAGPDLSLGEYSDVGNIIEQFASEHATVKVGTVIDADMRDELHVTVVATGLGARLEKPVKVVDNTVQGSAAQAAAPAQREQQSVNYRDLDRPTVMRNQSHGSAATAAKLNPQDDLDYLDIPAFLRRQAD

FtsZPa [2] = biological target: T1, FtsZPa; test: FtsZPa polymerization assay
FtsZSa = biological target: T2, FtsZSa (Staphylococcus aureus, UniProt P0A031); test: FtsZSa polymerization, 90° light scattering
T2 sequence (P0A031 1-390): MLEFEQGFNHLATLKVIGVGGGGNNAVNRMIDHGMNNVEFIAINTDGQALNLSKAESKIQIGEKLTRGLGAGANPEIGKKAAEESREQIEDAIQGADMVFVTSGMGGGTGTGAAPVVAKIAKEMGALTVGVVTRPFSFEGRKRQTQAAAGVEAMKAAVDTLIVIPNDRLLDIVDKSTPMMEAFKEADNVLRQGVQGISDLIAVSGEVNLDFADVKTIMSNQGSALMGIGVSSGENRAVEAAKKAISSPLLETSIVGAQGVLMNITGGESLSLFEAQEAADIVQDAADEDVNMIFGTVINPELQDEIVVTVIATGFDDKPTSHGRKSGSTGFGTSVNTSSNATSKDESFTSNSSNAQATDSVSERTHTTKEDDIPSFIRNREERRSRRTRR

[3] = system: S. aureus cystic fibrosis clinical isolates; test: MIC for CF clinical isolates; assay type: cell-based
S. aureus ATCC25923 = test: MIC determination by 2-fold microdilution, resazurin method; assay type: cell-based, Staphylococcus aureus; conditions: S. aureus ATCC25923, single drug

## COc1ccc(Cc2nnc(SC3=CS(=O)(=O)c4ccccc43)o2)cc1 [C11]
S. aureus TD276
  MIC: 2 µg/mL (≈ 5.18 µM)
A. baumannii ATCC19606; A. baumannii ATCC19606, C11 alone
  MIC: ≥ 128 µg/mL
A. baumannii ATCC19606; Acinetobacter baumannii, ATCC19606, A. baumannii ATCC19606, + PaβN 64 µg/ml, read-out: MIC
  MIC: 1 µg/mL
A. baumannii ATCC19606; Acinetobacter baumannii, ATCC19606, A. baumannii ATCC19606, C11 alone, read-out: MIC
  MIC: ≥ 128 µg/mL
FtsZPa [1]
  Effect on FtsZPa GTPase activity: did not interfere with the GTPase activity
FtsZPa [2]
  IC50: 34 µM
FtsZSa
  IC50: 48 µM
[3]; S. aureus BG8 MRSA, single drug
  MIC: 2 µg/mL (≈ 5.18 µM)
[3]; S. aureus BG9 MRSA, single drug
  MIC: 2 µg/mL (≈ 5.18 µM)
[3]; S. aureus BG10 MRSA, single drug
  MIC: 2 µg/mL (≈ 5.18 µM)
[3]; Staphylococcus aureus, MRSA, S. aureus BG6 MRSA, read-out: MIC
  MIC: 2 µg/mL (≈ 5.18 µM)
[3]; Staphylococcus aureus, MRSA, S. aureus BG7 MRSA smv, read-out: MIC
  MIC: 4 µg/mL (≈ 10.4 µM)
[3]; Staphylococcus aureus, MRSA, S. aureus BG8 MRSA, single drug, read-out: MIC
  MIC: 2 µg/mL (≈ 5.18 µM)
[3]; Staphylococcus aureus, MRSA, S. aureus BG9 MRSA, single drug, read-out: MIC
  MIC: 2 µg/mL (≈ 5.18 µM)
[3]; Staphylococcus aureus, MRSA, S. aureus BG10 MRSA, single drug, read-out: MIC
  MIC: 2 µg/mL (≈ 5.18 µM)
[3]; Staphylococcus aureus, S. aureus BG1, read-out: MIC
  MIC: 2 µg/mL (≈ 5.18 µM)
[3]; Staphylococcus aureus, S. aureus BG2, read-out: MIC
  MIC: 4 µg/mL (≈ 10.4 µM)
[3]; Staphylococcus aureus, S. aureus BG3, read-out: MIC
  MIC: 4 µg/mL (≈ 10.4 µM)
[3]; Staphylococcus aureus, S. aureus BG4, read-out: MIC
  MIC: 8 µg/mL (≈ 20.7 µM)
[3]; Staphylococcus aureus, S. aureus BG5, read-out: MIC
  MIC: 8 µg/mL (≈ 20.7 µM)
[3]; Staphylococcus aureus, S. aureus SA1, read-out: MIC
  MIC: 4 µg/mL (≈ 10.4 µM)
[3]; Staphylococcus aureus, S. aureus SA2, read-out: MIC
  MIC: 4 µg/mL (≈ 10.4 µM)
[3]; Staphylococcus aureus, S. aureus SA3, read-out: MIC
  MIC: 2 µg/mL (≈ 5.18 µM)
[3]; Staphylococcus aureus, S. aureus SA4, read-out: MIC
  MIC: 2 µg/mL (≈ 5.18 µM)
[3]; Staphylococcus aureus, S. aureus SA5, read-out: MIC
  MIC: 4 µg/mL (≈ 10.4 µM)
[3]; Staphylococcus aureus, S. aureus SA6, read-out: MIC
  MIC: 2 µg/mL (≈ 5.18 µM)
[3]; Staphylococcus aureus, S. aureus SA7, read-out: MIC
  MIC: 2 µg/mL (≈ 5.18 µM)
[3]; Staphylococcus aureus, S. aureus SA8, read-out: MIC
  MIC: 2 µg/mL (≈ 5.18 µM)
[3]; Staphylococcus aureus, S. aureus SA9, read-out: MIC
  MIC: 4 µg/mL (≈ 10.4 µM)
[3]; Staphylococcus aureus, S. aureus SA10, read-out: MIC
  MIC: 2 µg/mL (≈ 5.18 µM)
[3]; Staphylococcus aureus, S. aureus SA11, read-out: MIC
  MIC: 4 µg/mL (≈ 10.4 µM)
[3]; Staphylococcus aureus, S. aureus SA12, read-out: MIC
  MIC: 4 µg/mL (≈ 10.4 µM)
[3]; Staphylococcus aureus, S. aureus SA13, read-out: MIC
  MIC: 4 µg/mL (≈ 10.4 µM)
[3]; Staphylococcus aureus, S. aureus SA14, read-out: MIC
  MIC: 2 µg/mL (≈ 5.18 µM)
[3]; Staphylococcus aureus, S. aureus SA15, read-out: MIC
  MIC: 4 µg/mL (≈ 10.4 µM)
[3]; Staphylococcus aureus, S. aureus SA16, read-out: MIC
  MIC: 4 µg/mL (≈ 10.4 µM)
[3]; Staphylococcus aureus, S. aureus SA17, read-out: MIC
  MIC: 2 µg/mL (≈ 5.18 µM)
[3]; Staphylococcus aureus, S. aureus SA18, read-out: MIC
  MIC: 4 µg/mL (≈ 10.4 µM)
[3]; Staphylococcus aureus, S. aureus SA19, read-out: MIC
  MIC: 2 µg/mL (≈ 5.18 µM)
[3]; Staphylococcus aureus, S. aureus SA20, read-out: MIC
  MIC: 4 µg/mL (≈ 10.4 µM)
[3]; Staphylococcus aureus, S. aureus SA21, read-out: MIC
  MIC: 2 µg/mL (≈ 5.18 µM)
[3]; Staphylococcus aureus, S. aureus SA22, read-out: MIC
  MIC: 2 µg/mL (≈ 5.18 µM)
[3]; Staphylococcus aureus, S. aureus SA23, read-out: MIC
  MIC: 4 µg/mL (≈ 10.4 µM)
[3]; Staphylococcus aureus, S. aureus SA24, read-out: MIC
  MIC: 2 µg/mL (≈ 5.18 µM)
[3]; Staphylococcus aureus, S. aureus SA25, read-out: MIC
  MIC: 2 µg/mL (≈ 5.18 µM)
[3]; Staphylococcus aureus, panel of clinical isolates from cystic fibrosis patients, read-out: MIC values for the vast majority of the clinical isolates
  MIC: 2 to 4 µg/mL (≈ 5.18 to 10.4 µM)
S. aureus ATCC25923
  MIC S. aureus: 2 µg/mL (≈ 5.18 µM)
S. aureus ATCC25923; Staphylococcus aureus
  MIC: 2 µg/mL (≈ 5.18 µM)
